Results on two compounds are retold here after paper PMC3877016 (PLoS ONE, 2013).

A word on the ΔTm: it is the shift of the melting midpoint relative to a reference. As a reminder, the Kd is the concentration at which binding is half-saturated. The IC50 is the concentration that inhibits the measured activity by half.

Bounds are passed on as bounds.

For one data set, the system named is IL-6 mRNA in U937 cells. The experiment in a line: Inhibition of IL-6 mRNA in LPS-stimulated U937 cells (RT-PCR). It is filed as cell-based, human. The conditions noted are these: U937 cells differentiated with PMA. As to the method:
(§1) Huh7 cells were plated at 23,000/well in a 96 well plate in DMEM +10% FBS before allowing to grow overnight. Cells were treated with compounds for 48 h in 0.1%DMSO with or without 5 µM Actinomycin D. U937 cells were differentiated for 3 days in 60 ng/mL PMA, 32,000 cells/well in 96-well format. Cells were then treated with compound in 0.1%DMSO in RPMI media +10%FBS, and after 1 h, lipopolysaccharide (LPS, Sigma) was added to the cells at 1 µg/mL for 3 hours.
(§2) Cells were harvested by mRNA Catcher PLUS Kit followed by real-time PCR using the RNA UltraSense One-Step qRT-PCR System. ApoA-I, IL-6 and TNFα mRNA levels were measured relative to the endogenous control serpin A1 or cyclophilin in the same sample. Data was acquired using the 7500 Real Time PCR System (Applied Biosystems).

Another data set deals with T1, P300 (Homo sapiens, UniProt Q09472).
T1 construct: bromodomains contained within six other proteins (CREBBP, p300, BAZ2B, GCN5, PHIP and SMARC2A); His-tag (N)
T1 sequence (Q09472 1049-1156 limits assumed): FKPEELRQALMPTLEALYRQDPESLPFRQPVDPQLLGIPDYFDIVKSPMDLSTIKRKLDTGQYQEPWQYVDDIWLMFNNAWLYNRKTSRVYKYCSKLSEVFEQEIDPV
Put plainly: Protein thermal denaturation assay. It is filed as binding. The conditions noted are these: 5 µM protein, 100 µM compound. The protocol: (§3) 5 µM of purified bromodomain protein was incubated with 5X SYPRO® Orange (Molecular Probes) at a final concentration of 20 mM HEPES pH 7.4, 100 mM NaCl in the presence of 100 µM compound or DMSO (0.2%) in a fast 96 well optical plate (Applied Biosytems). Samples were incubated at room temperature for 30 minutes and ramped from 25°C to 95°C in a ViiA7 real-time PCR machine (Applied Biosystems). The resulting fluorescence data was analyzed and melting temperatures calculated using Protein Thermal Shift™ Software v1.0 (Life Technologies).

A further data set has as its target T2, GCN5 (Homo sapiens, UniProt Q92830).
T2 construct: bromodomains contained within six other proteins (CREBBP, p300, BAZ2B, GCN5, PHIP and SMARC2A); His-tag (N)
Put plainly: Protein thermal denaturation assay. The format is binding. The conditions noted are these: 5 µM protein, 100 µM compound. The protocol: as §3

The target in the next data set is T3, PHIP (Homo sapiens, UniProt Q8WWQ0).
T3 construct: bromodomains contained within six other proteins (CREBBP, p300, BAZ2B, GCN5, PHIP and SMARC2A); His-tag (N)
Put plainly: Protein thermal denaturation assay. The format is binding. The conditions noted are these: 5 µM protein, 100 µM compound. The protocol:
as §3

A further data set deals with T4, SMARCA2A (Homo sapiens, UniProt P51531).
T4 construct: bromodomains contained within six other proteins (CREBBP, p300, BAZ2B, GCN5, PHIP and SMARC2A); His-tag (N)
T4 sequence (P51531 1378-1506 limits assumed): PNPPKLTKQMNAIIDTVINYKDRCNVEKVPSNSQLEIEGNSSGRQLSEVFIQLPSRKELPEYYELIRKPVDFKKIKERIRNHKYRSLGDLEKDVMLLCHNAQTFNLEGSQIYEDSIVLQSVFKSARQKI
The experiment in a line: Protein thermal denaturation assay. The format is binding. The conditions noted are these: 5 µM protein, 100 µM compound. As to the method: as §3

In a further data set the target is T5, CREBBP (Homo sapiens, UniProt Q92793).
T5 construct: bromodomains contained within six other proteins (CREBBP, p300, BAZ2B, GCN5, PHIP and SMARC2A); His-tag (N)
T5 sequence (Q92793 1085-1192 limits assumed): as the sequence (Q09472 1049-1156 limits assumed) above, with S47N, I73V, Y93F, S98A counted along it
The experiment in a line: Protein thermal denaturation assay. The format is binding. The settings on record: 5 µM protein, 100 µM compound. As to the method:
as §3

For another data set, the target named is T6, BAZ2B (Homo sapiens, UniProt Q9UIF8).
T6 construct: bromodomains contained within six other proteins (CREBBP, p300, BAZ2B, GCN5, PHIP and SMARC2A); His-tag (N)
T6 sequence (Q9UIF8 2060-2164 limits assumed): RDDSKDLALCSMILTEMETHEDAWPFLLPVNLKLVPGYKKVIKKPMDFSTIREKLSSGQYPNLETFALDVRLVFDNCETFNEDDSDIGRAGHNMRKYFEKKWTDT
Put plainly: Protein thermal denaturation assay. The format is binding. The conditions noted are these: 5 µM protein, 100 µM compound. The protocol:
as §3

Data set [1] concerns ApoA-I mRNA in Huh7 cells. The experiment in a line: Induction of ApoA-I mRNA in Huh7 cells (RT-PCR). It is filed as cell-based, human. The settings on record: for Induction of ApoA-I mRNA: 48 h. The protocol:
as §1, §2

The target of data set [2] is T7, BRD2[BD1] (Homo sapiens, UniProt P25440).
T7 construct: we expressed and purified the bromodomains (BD1, BD2) for the BETs expressed in hepatocytes (BRD2, BRD3, BRD4)
T7 sequence (P25440 74-180 limits assumed): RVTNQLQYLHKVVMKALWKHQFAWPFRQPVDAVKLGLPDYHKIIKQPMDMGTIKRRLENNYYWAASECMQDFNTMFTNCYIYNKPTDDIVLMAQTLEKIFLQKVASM
The experiment in a line: Isothermal titration calorimetry. The settings on record: ITC, 25°C. It is filed as binding. A general note: In ITC the heat of successive injections is recorded.

Data set [3] deals with bromodomains of CREBBP, p300, BAZ2B, GCN5, PHIP and SMARC2A. Put plainly: Protein thermal denaturation assay (text summary). The format is binding. The protocol: as §3
The test system of a further data set is ApoA-I mRNA in HepG2. The settings on record: cited from earlier work.
Data set [4] deals with T8, BRD2[BD2] (Homo sapiens, UniProt P25440).
T8 construct: we expressed and purified the bromodomains (BD1, BD2) for the BETs expressed in hepatocytes (BRD2, BRD3, BRD4)
T8 sequence (P25440 344-453 limits assumed): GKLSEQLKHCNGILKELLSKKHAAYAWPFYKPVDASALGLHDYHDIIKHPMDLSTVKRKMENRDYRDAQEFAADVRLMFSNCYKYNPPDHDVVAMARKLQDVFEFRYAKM
The experiment in a line: Isothermal titration calorimetry. It is filed as binding. The conditions noted are these: ITC, 25°C.

Data set [5] concerns BRDs2, 3 and 4 on chromatin in Huh7 cells. The experiment in a line: Extraction of soluble BET proteins from chromatin (Western blot). The format is cell-based, human. As to the method: Soluble proteins were extracted using a buffer containing 0.5% Triton X-100 (10 mM PIPES pH 6.8, 300 mM sucrose, 50 mMNaCl, 3 mM MgCl2, 1 mM EGTA, 2 mM ribonucleoside vanadyl complex) as previously described.
For orientation: A western blot detects proteins with antibodies after separation by electrophoresis.

The test system of data set [6] is cholesterol efflux capacity. The settings on record: monkeys; cited from earlier work.
A further data set has as its target T9, BRD3[BD1] (Homo sapiens, UniProt Q15059).
T9 construct: we expressed and purified the bromodomains (BD1, BD2) for the BETs expressed in hepatocytes (BRD2, BRD3, BRD4)
Put plainly: Protein thermal denaturation assay. The format is binding. The settings on record: 5 µM protein, 100 µM compound. As to the method: as §3

A further data set deals with T10, BRD3[BD2] (Homo sapiens, UniProt Q15059).
T10 construct: we expressed and purified the bromodomains (BD1, BD2) for the BETs expressed in hepatocytes (BRD2, BRD3, BRD4)
T10 sequence (Q15059 306-415 limits assumed): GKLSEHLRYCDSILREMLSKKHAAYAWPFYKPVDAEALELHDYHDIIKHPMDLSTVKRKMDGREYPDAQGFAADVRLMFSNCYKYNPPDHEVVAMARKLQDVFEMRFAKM
The experiment in a line: Protein thermal denaturation assay. It is filed as binding. The settings on record: 5 µM protein, 100 µM compound. As to the method: as §3

The target of data set [7] is T7, BRD2[BD1]. Put plainly: Protein thermal denaturation assay. It is filed as binding. As to the method:
as §3

In data set [8] the target is T11, BRD4[BD2] (Homo sapiens, UniProt O60885).
T11 construct: we expressed and purified the bromodomains (BD1, BD2) for the BETs expressed in hepatocytes (BRD2, BRD3, BRD4)
Put plainly: Protein thermal denaturation assay. It is filed as binding. As to the method:
as §3

In data set [9] the target is T8, BRD2[BD2]. Put plainly: Protein thermal denaturation assay. It is filed as binding. The protocol:
as §3

The target of data set [10] is T12, BRD4[BD1] (Homo sapiens, UniProt O60885).
T12 construct: we expressed and purified the bromodomains (BD1, BD2) for the BETs expressed in hepatocytes (BRD2, BRD3, BRD4)
The experiment in a line: Protein thermal denaturation assay. The format is binding. The protocol: as §3

Data set [11] addresses T11, BRD4[BD2]. The experiment in a line: Isothermal titration calorimetry. The format is binding. The conditions noted are these: ITC, 25°C.
Data set [12] concerns the target T12, BRD4[BD1]. The experiment in a line: Isothermal titration calorimetry. It is filed as binding. The conditions noted are these: ITC, 25°C.
The target of data set [13] is BD1 bromodomains of BRDs 2 and 3. The experiment in a line: TR-FRET competition assay. The conditions noted are these: BD1 of BRDs 2 and 3, text summary citing Table 3. It is filed as binding, human. As to the method: 200 nM N-terminally His-tagged bromodomains or BRD4(BD1BD2) and 25–50 nM biotinylated tetra-acetylated histone H4 peptide (Millipore) were incubated in the presence of Europium Cryptate-labeled streptavidin (Cisbio Cat. #610SAKLB) and XL665-labeled monoclonal anti-His antibody (Cisbio Cat.#61HISXLB) in a white 96 well microtiter plate (Greiner). For inhibition assays, serially diluted compound was added to these reactions in a 0.2% final concentration of DMSO. Final buffer concentrations were 30 mM HEPES pH 7.4, 30 mM NaCl, 0.3 mM CHAPS, 20 mM PO4 pH 7.0, 320 mM KF, 0.08% BSA). After 2 h incubation at room temperature, the fluorescence by FRET was measured at 665 and 620 nm by a SynergyH4 plate reader (Biotek). IC50 values were determined from a dose response curve.

Data set [14] concerns the target T13, PHIP on chromatin in Huh7 cells (Homo sapiens, UniProt Q8WWQ0).
T13 construct: endogenous in cells; host or cells: Huh7
Put plainly: Extraction of soluble proteins from chromatin (Western blot). It is filed as cell-based. The protocol:
Soluble proteins were extracted using a buffer containing 0.5% Triton X-100 (10 mM PIPES pH 6.8, 300 mM sucrose, 50 mMNaCl, 3 mM MgCl2, 1 mM EGTA, 2 mM ribonucleoside vanadyl complex) as previously described. After loading on a 4–12% NuPAGE gradient gel (Life Technologies), the soluble and chromatin-containing pellet fractions were evaluated by Western blot with the following antibodies and dilutions: BRD2 (Bethyl, A302-583A, 1∶5000); BRD3 (Bethyl A302-368A, 1∶2000); BRD4 (Bethyl A301-985A, 1∶1000); PHIP (Abcam ab86244, 1∶2000), HNF4a (Perseus PPH1415, 1∶1000); NR2F2 (Perseus PPH7147, 1∶1000).

The target in data set [15] is BRDT tandem bromodomains [BD1 BD2] (Homo sapiens, UniProt Q58F21). The experiment in a line: TR-FRET competition assay, tandem bromodomains. The format is binding. As to the method: For inhibition assays, serially diluted compound was added to these reactions in a 0.2% final concentration of DMSO. Final buffer concentrations were 30 mM HEPES pH 7.4, 30 mM NaCl, 0.3 mM CHAPS, 20 mM PO4 pH 7.0, 320 mM KF, 0.08% BSA). After 2 h incubation at room temperature, the fluorescence by FRET was measured at 665 and 620 nm by a SynergyH4 plate reader (Biotek). IC50 values were determined from a dose response curve.

The subject of the next data set is ApoA-I and HDL-C levels. Also on record: method as in PMID 21255957. The settings on record: statin-treated patients with coronary artery disease; cited from earlier work.

T2 sequence (Q92830 728-832 limits assumed): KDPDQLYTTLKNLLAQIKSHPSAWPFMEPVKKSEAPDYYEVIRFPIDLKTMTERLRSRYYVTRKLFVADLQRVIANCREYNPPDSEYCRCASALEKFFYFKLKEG
T9 sequence (Q15059 34-140 limits assumed): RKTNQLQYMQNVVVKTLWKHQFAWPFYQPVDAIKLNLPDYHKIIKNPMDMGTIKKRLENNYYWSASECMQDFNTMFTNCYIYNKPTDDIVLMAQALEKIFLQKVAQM

Turning to `Cc1sc2c(c1C)C(c1ccc(Cl)cc1)=N[C@@H](CC(=O)OC(C)(C)C)c1nnc(C)n1-2` [JQ-1, reference compound], the “Suppression of IL-6 mRNA” value in the data set with IL-6 mRNA in U937 cells was “selectively suppresses IL-6 mRNA”. The “Thermal denaturation ΔTm” value was −1.4 °C on P300; −0.7 °C on GCN5; −1.4 °C at PHIP; 0.4 °C on SMARCA2A; −1.0 °C at CREBBP; −0.83 °C on BAZ2B. The “Induction of ApoA-I mRNA” value in data set [1] is listed as “induces ApoA-I mRNA”.
Turning to `COc1cc(OC)c2c(=O)[nH]c(-c3cc(C)c(OCCO)c(C)c3)nc2c1` [RVX-208, 2-(4-(2-hydroxyethoxy)-3,5-dimethylphenyl)-5,7-dimethoxyquinazolin-4(3H)-one], the ΔH is -12.67 kcal/mol on BRD2[BD1] [2], -4.145 kcal/mol at BRD2[BD2] [4], -6.376 kcal/mol at BRD4[BD2] [11] and -17.04 kcal/mol on BRD4[BD1] [12]. In addition, in [3], the “Binding to bromodomains of six other proteins” value was “did not bind”. Besides, the “Induction of ApoA-I mRNA” value (in the data set on ApoA-I mRNA in HepG2; in data set [1]) was “induces ApoA-I mRNA” in each case. Moreover, the values for the ΔS result at BRD2[BD2] [4], on BRD4[BD2] [11] and at BRD4[BD1] [12] were “+16.7 cal mol^−1 K^−1”, “+8.44 cal mol^−1 K^−1” and −34.1 cal mol^−1 K^−1, respectively. Besides, the “Duration of release of BET proteins from chromatin” value in data set [5] is “more than 48 h”. Further, the “Release of BRDs2, 3 and 4 from chromatin into soluble fraction” value in data set [5] is “partially released from chromatin”. The “Time to release of BET proteins from chromatin” value in [5] (time of treatment) is no more than 2 h. Also, the “Systemic capacity to promote cholesterol efflux” value in data set [6] is “enhanced systemic capacity to promote cholesterol efflux”. Moreover, the “Suppression of IL-6 mRNA” value in the data set on IL-6 mRNA in U937 cells is recorded as “selectively suppresses IL-6 mRNA”. Further, the ΔTm at 100 µM on BRD3[BD1] was 2.6 °C; at BRD3[BD2], 6.8 °C; at P300 it was -0.16 °C; on BRD2[BD1] [7] it was 1.9 °C; at GCN5 it was 0 °C; at BRD4[BD2] [8], 7.7 °C. Further, the ΔTm at 100 µM on PHIP is 0.19 °C; on BRD2[BD2] [9] it was 5.1 °C; at SMARCA2A, 0.4 °C; at BRD4[BD1] [10], 3.9 °C; at CREBBP, -0.3 °C; on BAZ2B it was 0 °C. In [13], the Kd was 2 to 3 µM. Besides, the “Induction of ApoA-I in presence of Actinomycin D” value in data set [1] (30 µM RVX-208, with 5 µM Actinomycin D) is “inhibited by Actinomycin D”. Moreover, the “Release of PHIP from chromatin” value in data set [14] is on record as “stays in the insoluble (pellet, P) fraction”. In addition, the IC50 in data set [15] turned out to be 1.45 µM. Moreover, the ApoA-I levels result in the data set with ApoA-I and HDL-C levels was “increased”. For the same compound, the HDL-C levels result in the data set on ApoA-I and HDL-C levels is reported as “increased”.
